Experimental data from patent publication US5214204A, “Arylamidoalkyl-N-hydroxyurea compounds having lipoxygenase inhibitory activity” (Abbott Laboratories, priority 1991, dated 1993).

How the values were obtained:
[1] = target: T1, 5-Lipoxygenase from HWBL-1 20,000 xg Supernatant (Rattus norvegicus, UniProt P12527); assay: 5-lipoxygenase inhibition, 20,000 xg supernatant of homogenized HWBL-1 cells, radiolabeled arachidonic acid; type: biochemical; details: read-out: IC50 (in vitro inhibitory potency against 5-lipoxygenase)
T1 construct: 20,000 xg supernatant from 1.5 million homogenized HWBL-1 cells; endogenous in cells
T1 sequence (P12527 1-673): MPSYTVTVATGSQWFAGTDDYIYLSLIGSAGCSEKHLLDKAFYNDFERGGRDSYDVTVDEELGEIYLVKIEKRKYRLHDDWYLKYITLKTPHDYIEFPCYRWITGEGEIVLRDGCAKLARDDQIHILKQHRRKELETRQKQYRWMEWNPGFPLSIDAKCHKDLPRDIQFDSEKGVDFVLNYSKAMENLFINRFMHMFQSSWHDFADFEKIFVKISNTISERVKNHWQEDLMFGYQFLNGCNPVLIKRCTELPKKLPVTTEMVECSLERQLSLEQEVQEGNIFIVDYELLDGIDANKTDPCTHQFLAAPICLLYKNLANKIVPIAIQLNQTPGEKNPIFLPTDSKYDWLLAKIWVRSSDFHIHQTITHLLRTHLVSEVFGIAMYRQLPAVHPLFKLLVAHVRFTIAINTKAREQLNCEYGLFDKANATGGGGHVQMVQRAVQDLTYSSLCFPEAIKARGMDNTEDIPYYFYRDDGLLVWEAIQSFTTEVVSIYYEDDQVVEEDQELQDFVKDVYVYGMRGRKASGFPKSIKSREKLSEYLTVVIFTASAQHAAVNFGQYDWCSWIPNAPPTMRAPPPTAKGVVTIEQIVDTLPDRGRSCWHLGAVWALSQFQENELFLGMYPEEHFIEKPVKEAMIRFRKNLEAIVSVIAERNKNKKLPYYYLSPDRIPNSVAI
Procedure: Assays to determine 5-lipoxygenase inhibitory activity of representative compounds of the present invention were performed in […] incubations containing the 20,000 xg supernatant from 1.5 million homogenized HWBL-1 cells and various concentrations of the test compound. Reactions were initiated by addition of radiolabeled arachidonic acid and terminated by acidification and ether extraction. Reaction products were separated from nonconverted substrate by thin layer chromatography and measured by liquid scintillation spectroscopy. All incubations are performed in triplicate. Inhibition of 5-lipoxygenase activity was calculated as the ratio of the amount of product formed in the presence and absence of inhibitor. IC50 values (concentration of compound producing 50% enzyme inhibition) were calculated by linear regression analysis of percentage inhibition versus log inhibitor concentration plots. (Dyer, R. D.; Haviv, F.; Hanel, A. M.; Bornemier, D. A.; Carter, G. W. Fed. Proc., Fed. Am. Soc. Exp. Biol. 1984, 43, 1462A).
In Vitro Inhibitory Potencies of Compounds of this Invention
Against 5-Lipoxygenase from HWBL-1 20,000 xg Supernatant

Leukotrienes = assay: inhibition of leukotriene biosynthesis in vivo, rat peritoneal anaphylaxis model, oral; details: oral gavage, 1 h before antigen challenge; for inhibition in vivo at 30 µmol/kg: read-out: % Inhibition of Leukotrienes, Oral Dose at 30 μmol/kg; for inhibition in vivo at 100 µmol/kg: 100 μmol/kg, read-out: % Inhibition of Leukotrienes, Oral Dose at 100 μmol/kg
Procedure: Inhibition of the biosynthesis of leuktrienes in vivo after oral administration of compound was determined using a rat peritoneal anaphylaxis model in a similar manner as that described by Young and coworkers (Young, P. R.; Dyer, R. D.; Carter, G. W. Fed. Proc., Fed. Am. Soc. Exp. Biol. 1985, 44, 1185). In this model rats were injected intraperitoneally (ip) with rabbit antibody to bovine serum albumin (BSA) and three hours later injected ip with BSA to induce an antgen-antibody response. Rats were sacrificed 15 minutes after this challenge and the peritoneal fluids were collected and analyzed for leukotriene levels. Test compounds were administered by gavage one hour prior to the antigen challenge. Percent inhibition values were determined by comparing the treatment group to the mean of the control group.

Question: For `NC(=O)N(O)CCNC(=O)c1cccc(Oc2ccc(Br)cc2)c1` [Example 53, N-Hydroxy-N-[2-(3-((4-bromophenoxy)benzoyl)amino)ethyl]urea], which IC50 [1] is on record?
Answer: Its IC50 is 440 nM.

Question: And the inhibition in vivo at 30 µmol/kg (Leukotrienes; 30 μmol/kg)?
Answer: The inhibition in vivo at 30 µmol/kg was 33%.

Question: How did the IC50 [1] turn out when `NC(=O)N(O)CCNC(=O)c1cccc(Oc2ccc(F)cc2)c1` [Example 54, N-Hydroxy-N-[2-(3-((4-fluorophenoxy)benzoyl)amino)ethyl]urea] was run?
Answer: The IC50 was 150 nM.

Question: And the inhibition in vivo at 30 µmol/kg (Leukotrienes; 30 μmol/kg)?
Answer: Its inhibition in vivo at 30 µmol/kg is 11%.

Question: `NC(=O)N(O)CCNC(=O)c1cccc(Oc2ccccn2)c1` [Example 55, N-Hydroxy-N-[2-((3-(pyrid-2-yloxy)benzoyl)amino)ethyl]urea] was tested. Which IC50 [1] did it give?
Answer: Its IC50 is 1000 nM.

Question: What about the inhibition in vivo at 100 µmol/kg (Leukotrienes) of the same compound?
Answer: The inhibition in vivo at 100 µmol/kg was 83%.

Question: `NC(=O)N(O)CCNC(=O)Cc1cccc(Oc2ccccc2)c1` [Example 56, N-Hydroxy-N-[2-((3-phenoxyphenylacetyl)amino)ethyl]urea] was tested. Which IC50 [1] did it give?
Answer: Its IC50 is 220 nM.

Question: And the inhibition in vivo at 100 µmol/kg (Leukotrienes)?
Answer: Its inhibition in vivo at 100 µmol/kg is 85%.

Question: With `NC(=O)N(O)CCNC(=O)c1ccc(Oc2ccc(Cl)cc2)o1` [Example 58, N-Hydroxy-N-[2-((5-(4-chlorophenoxy)furan-2-oyl)amino)ethyl]urea] as the compound, how does the IC50 [1] read?
Answer: Its IC50 is 110 nM.

Question: And the “% Inhibition of Leukotrienes, Oral Dose at 50 μmol/kg” value (Leukotrienes)?
Answer: Its value is 81%.

Question: How did the IC50 [1] turn out when `C[C@@H](CN(O)C(N)=O)NC(=O)c1ccc(Oc2ccc(F)cc2)o1` [Example 60] was run?
Answer: Its IC50 is 280 nM.

Question: What about the inhibition in vivo at 100 µmol/kg (Leukotrienes) of the same compound?
Answer: The inhibition in vivo at 100 µmol/kg was 84%.

Question: For `NC(=O)N(O)CCNC(=O)c1ccc(Oc2ccc(F)cc2)o1` [Example 61], which IC50 [1] is on record?
Answer: Its IC50 is 160 nM.

Question: And the “% Inhibition of Leukotrienes, Oral Dose at 50 μmol/kg” value (Leukotrienes)?
Answer: Its value is 60%.

Question: `NC(=O)N(O)CCNC(=O)c1cc2ccccc2o1` [Example 63, N-Hydroxy-N-[((benzo[b]furan-2-oyl)amino)ethyl]urea] was tested. Which IC50 [1] did it give?
Answer: The IC50 was 1000 nM.

Question: And the inhibition in vivo at 30 µmol/kg (Leukotrienes; 30 μmol/kg)?
Answer: The inhibition in vivo at 30 µmol/kg was 52%.

Question: `CC(Oc1ccccc1C(=O)NCCN(O)C(N)=O)c1ccccc1` (stereo not shown) [Example 87, N-Hydroxy-N-[2-((2-(1-phenylethyloxy)benzoyl)amino)ethyl]urea] was tested. Which IC50 [1] did it give?
Answer: The IC50 was 370 nM.

Question: And the inhibition in vivo at 100 µmol/kg (Leukotrienes)?
Answer: The inhibition in vivo at 100 µmol/kg was 60%.

Question: Which results are given for `CC(CCNC(=O)c1ccc(Oc2ccc(F)cc2)o1)N(O)C(N)=O` (stereo not shown) [Example 88, N-Hydroxy-N-[4-((5-(4-fluorophenoxy)furan-2-oyl)amino)but-2-yl]urea]?
Answer: IC50 [1]: 280 nM; inhibition in vivo at 30 µmol/kg (Leukotrienes; 30 μmol/kg): 84%

Question: Which results are given for “N-Hydroxy-N-[((4-chlorobenzo[b]thien-2-oyl)amino)ethyl]urea [Example 64]”?
Answer: IC50 [1]: 2100 nM; % Inhibition of Leukotrienes, Oral Dose at 30 μmol/kg (Leukotrienes; 30 μmol/kg): 92%
